Results published in BindingDB's records for doi:10.1016/j.chembiol.2011.03.012 (Riken Advanced Science Institute, 2011).

The compounds below were run against DNA topoisomerase 2-alpha (Homo sapiens, UniProt P11388) (assay: Inhibition Assay). Conditions: pH 7.5; 4 °C.
Description: In vitro inhibition of TOP2 alpha activity by BNS derivatives.

DNA topoisomerase 2-alpha, sequence (P11388 whole entry): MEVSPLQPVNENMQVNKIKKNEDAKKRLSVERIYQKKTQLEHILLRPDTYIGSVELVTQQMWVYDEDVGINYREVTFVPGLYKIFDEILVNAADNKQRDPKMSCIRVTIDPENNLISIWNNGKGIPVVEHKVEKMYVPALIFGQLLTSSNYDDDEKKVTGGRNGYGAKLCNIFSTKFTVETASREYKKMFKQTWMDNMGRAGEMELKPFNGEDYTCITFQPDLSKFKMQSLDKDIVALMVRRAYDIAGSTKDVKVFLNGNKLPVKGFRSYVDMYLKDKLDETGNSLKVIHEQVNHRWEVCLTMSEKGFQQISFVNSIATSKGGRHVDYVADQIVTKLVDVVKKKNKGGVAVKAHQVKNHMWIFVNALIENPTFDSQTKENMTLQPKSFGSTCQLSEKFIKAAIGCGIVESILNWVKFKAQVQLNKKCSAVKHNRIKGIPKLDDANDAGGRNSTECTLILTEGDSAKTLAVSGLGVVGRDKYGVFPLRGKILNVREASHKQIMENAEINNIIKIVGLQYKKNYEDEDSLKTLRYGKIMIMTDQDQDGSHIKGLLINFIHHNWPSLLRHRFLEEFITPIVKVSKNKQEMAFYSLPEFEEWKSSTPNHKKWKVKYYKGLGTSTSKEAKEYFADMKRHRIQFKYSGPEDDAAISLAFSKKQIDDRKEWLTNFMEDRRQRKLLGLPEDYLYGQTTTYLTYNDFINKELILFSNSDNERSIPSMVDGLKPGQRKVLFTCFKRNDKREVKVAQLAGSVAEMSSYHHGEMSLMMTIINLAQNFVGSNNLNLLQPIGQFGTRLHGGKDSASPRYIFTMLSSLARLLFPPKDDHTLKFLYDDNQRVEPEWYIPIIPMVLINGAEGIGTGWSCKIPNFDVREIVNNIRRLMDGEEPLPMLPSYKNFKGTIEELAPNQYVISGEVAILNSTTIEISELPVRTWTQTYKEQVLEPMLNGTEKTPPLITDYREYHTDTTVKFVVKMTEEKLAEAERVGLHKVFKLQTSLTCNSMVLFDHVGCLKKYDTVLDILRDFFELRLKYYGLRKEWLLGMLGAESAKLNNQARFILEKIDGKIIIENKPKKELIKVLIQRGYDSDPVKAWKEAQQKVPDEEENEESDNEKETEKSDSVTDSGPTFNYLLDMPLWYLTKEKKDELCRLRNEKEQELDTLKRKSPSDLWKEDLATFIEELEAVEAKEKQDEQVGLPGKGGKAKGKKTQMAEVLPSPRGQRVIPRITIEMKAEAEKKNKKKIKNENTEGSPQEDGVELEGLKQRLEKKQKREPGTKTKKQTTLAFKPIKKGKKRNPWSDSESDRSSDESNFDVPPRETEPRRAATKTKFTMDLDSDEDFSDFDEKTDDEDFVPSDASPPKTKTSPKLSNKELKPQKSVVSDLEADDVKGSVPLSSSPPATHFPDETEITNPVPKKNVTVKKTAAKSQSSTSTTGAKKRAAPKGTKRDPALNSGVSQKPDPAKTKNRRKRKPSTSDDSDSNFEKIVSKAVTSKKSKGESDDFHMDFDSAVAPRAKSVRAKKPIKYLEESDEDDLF

Row | SMILES | IC50
1 | CCCc1cc(=O)oc2c(C(=O)N3CCCc4ccccc43)c(OC)cc(OC)c12 [BNS-22] | 2.8 µM
2 | COC(=O)Cc1cc(=O)oc2c(C(=O)N3CCCc4ccccc43)c(OC)cc(OC)c12 [BNS-65] | 8.2 µM

Further lines, results first:

Row | IC50 | SMILES
3 | > 100 µM | CCCc1cc(=O)oc2c(C(=O)N3CCc4ccccc4C3)c(OC)cc(OC)c12 [BNS-52]
4 | > 100 µM | CCCc1cc(=O)oc2c(C(=O)N3CCC(Cc4ccccc4)CC3)c(OC)cc(OC)c12 [BNS-53]
5 | > 100 µM | CCCc1cc(=O)oc2c(C(=O)N3CCCCC3)c(OC)cc(OC)c12 [BNS-54]
